Assay results published in PubChem BioAssay (NCI).
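Growth conditions: 96-well plates. Treatment: test compound, 48 hours, 5 concentrations. Analysis: linear interpolation between bracketing concentrations; unreached endpoints set to highest concentration. GI50: concentration for 50% inhibition of growth. Definition used: TGI = concentration required for complete inhibition of growth.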

Columns and labels:
Experiment in all cases: NCI-60 cell line screen, 48 h
[1] = tested on: HT29 colon
[2] = tested on: ACHN renal
[3] = tested on: 786-0 renal
[4] = tested on: NCI-H460 lung
[5] = tested on: RPMI-8226 leukemia
[6] = tested on: U251 CNS
[7] = tested on: HCC-2998 colon
[8] = tested on: MCF7 breast
[9] = tested on: SW-620 colon
[10] = tested on: NCI-H226 lung

Compound	GI50 [1] [µM]	TGI [1] [µM]	GI50 [2] [µM]	TGI [2] [µM]	GI50 [3] [µM]	TGI [3] [µM]	GI50 [4] [µM]	TGI [4] [µM]	GI50 [5] [µM]	TGI [5] [µM]	GI50 [6] [µM]	TGI [6] [µM]	GI50 [7] [µM]	TGI [7] [µM]	GI50 [8] [µM]	TGI [8] [µM]	GI50 [9] [µM]	TGI [9] [µM]	GI50 [10] [µM]	TGI [10] [µM]
N#Cc1nc2c(S(=O)(=O)c3ccc(Cl)cc3)c(N)n(CCCN3CCOCC3)c2nc1C#N	5.96	> 100	3.26	15.3	17.3	52.8	15.8	40.9	4.68	41	10.8	26.7	18	33.7	3.76	16.5	2.99	14.1	2.87	13.5
Cc1ccc(C(=O)NC2CCC2)cc1-c1ccc(C(=O)NCC2CC2)cc1	> 25	> 25	> 25	> 25	> 25	> 25	> 25	> 25	> 25	> 25	> 25	> 25	> 25	> 25	> 25	> 25	> 25	> 25	> 25	> 25
O=S(=O)(c1cccc2c(I)cccc12)N1CCCNCC1	20.8	55.3	18.1	33.6	16.9	32.8	33.2	> 100	14.5	38.5	19.6	39.1	17.4	35.1	36.1	> 100	17.1	51.4	17.8	34.8
Nc1c(C(=O)c2cccc(-c3cccnc3)c2)cnn1-c1ccc(F)cc1F	1.05	> 25	6.92	> 25	18.1	> 25	1.52	> 25	9.54	> 25	6.79	> 25	9.43	> 25	1.59	> 25	1.27	> 25	6.96	> 25
COc1cnc2c(c1)C(=O)c1c-2n(CCCNC2=NCCS2)c(=O)c2cc(Cl)ccc12	0.121	2.23	0.0487	1.49	0.239	1.72	0.0299	1.16	1.07	4.89	0.0546	1.82	1.36	2.68	0.0366	1.32	0.146	2.08	0.687	2.29
COc1ccc(/C=C(\C(=O)NCc2cccnc2)S(=O)(=O)c2ccccc2)cc1OC	3.45	14.8	3.16	11.5	2.86	8.92	2.4	6.67	2.43	6.78	3.09	14	3.91	15.1	2.41	12.7	2.95	10.9	3.13	10.7
COc1ccc(CC(=O)c2ccc(O)cc2O)cc1	> 100	> 100	> 100	> 100	> 100	> 100	56.1	> 100	34	> 100	> 100	> 100	> 100	> 100	> 100	> 100	> 100	> 100	> 100	> 100
COC(=O)Nc1nc2ccc(Oc3cccc(NC(=O)Nc4cc(C(F)(F)F)ccc4F)c3)cc2[nH]1	9.11	> 25	24.4	> 25	> 25	> 25	11.4	> 25	> 20.8	> 25	15.4	> 25	13.2	> 25	4.45	> 7.9	10.3	> 25	> 15.3	> 25
CC[C@H](CO)Nc1nc(NCc2ccccc2)c2ncn(C(C)C)c2n1	24.3	> 100	16.4	> 85.9	31.9	> 100		> 100		> 77.8	40	> 100	24.7	> 75.2		> 81.5	49.3	> 100		> 93.7
O=C1c2ccc3c4c(ccc(c24)C(=O)N1CCCNCc1ccccc1Cl)C(=O)N(CCCNCc1ccccc1Cl)C3=O	0.123	0.335	0.206	0.859	0.61	1.43	0.212	0.817	0.39	1.86	0.218	0.91	0.191	0.651	0.1	0.231	0.128	0.361	0.659	1.49
C#CCNCCN1C(=O)c2ccc3c4c(ccc(c24)C1=O)C(=O)N(CCNCC#C)C3=O	1.65	6.2	2.63	9.8	6.1	26.5	1.86	9.68	10.6	43.2	3.3	10.9	2.49	10	2.67	13.4	1.92	11.8	2.96	12.2
CCc1ccc2c(c1)C(=O)c1c-2n(CCCN=[N+]=[N-])c(=O)c2cc(OC)c(OC)cc12	> 100	> 100	42.2	> 100	40.6	> 100	> 100	> 100	> 100	> 100	47.1	> 100	> 100	> 100	91.7	> 100	> 100	> 100	> 100	> 100
C=C1c2ccoc2C[C@H]2[C@H]1CC[C@@]1(O)[C@@](C)(C(=O)OC)CCC[C@]21C	17.5	81.6	16	40.9	40.1	> 100	18	49.9	21.5	54	42.4	> 100	29.4	71	9.51	> 100	29.8	85.5	18.1	56.2
Cc1[nH]c2ccc(F)cc2c1-c1nc2c3cccnc3c3ncccc3c2[nH]1	0.479	> 100	0.327	> 100	0.327	> 100	0.41	> 100	3.43	> 100	0.244	> 100	0.321	> 100	0.361	> 100	0.374	> 100	0.351	> 100
CCN1C(=O)N(CC)C2C1NN=c1s/c(=C\c3ccccn3)c(=O)n12 (stereo unspecified)	0.681	> 100	6.45	> 100	4.7	> 100	2.07	> 100	1.71	> 100	2.96	> 100	3.17	> 100	0.468	> 100	0.743	> 100	3.07	> 100
Cc1[nH]c(=O)nc(Nc2ccc(Cl)cc2)c1C(=O)N1CCN(CCO)CC1	> 100	> 100	> 100	> 100	50.7	> 100	> 100	> 100	> 100	> 100	37.6	> 100	> 100	> 100	> 100	> 100	> 100	> 100	> 100	> 100
CN1CCc2[nH]nc(-c3n[nH]c4c3CN(C)CC4)c2C1		> 100		> 100		> 100		> 100		> 100		> 100		> 100		> 100		> 100		> 100
Nc1c(C(=O)c2cccc(C#CCO)c2)cnn1-c1ccc(F)cc1	> 25	> 25	> 25	> 25	> 25	> 25	> 25	> 25	> 25	> 25	> 25	> 25	> 25	> 25	> 25	> 25	> 25	> 25	> 25	> 25
Nc1ccccc1C#C/C=C\C#Cc1cccc(O)c1	11.4	41.7	2.64	18.8	3.89	15.3	3.19	> 34.2	2.51	> 38.2	4.09	17.1	3.98	9.08	0.918	11.2	3.12	15.2	6.03	20.9
CCOC(=O)c1cc2c(n1Cc1cc(OC)c(OC)c(OC)c1)-c1oncc1CCC2	0.138	2.67	0.296	> 59.9	0.583	> 35.9	0.284	13.7	0.42	21.9	0.214	5.01	0.335	5.17	0.0589	> 66.5	0.186	> 100	1.27	> 53
Cn1cccc1-c1cc(-c2ccc(Br)cc2)[nH]c(=O)c1C#N	> 100	> 100	> 100	> 100	> 100	> 100	> 100	> 100	> 100	> 100	> 100	> 100	> 100	> 100	> 100	> 100	> 100	> 100	> 100	> 100
COc1ccc(N(/C=C/C(=O)C(F)(F)F)CC(=O)c2ccc(F)cc2)cc1	46.2	> 100	16.3	41.2	21.1	52.4	23.5	50	15.2	47.3	13.1	28.3	21.4	38.9	43.1	> 100	35	> 100	12.1	33.3
CN(C)CC1CCC2=C(C1=O)C(c1ccc(Cl)c(Cl)c1)C1=C(CCC(CN(C)C)C1=O)O2 (stereo unspecified)	8.57	22.4	14.3	27.3	1.58	2.98	10.3	24.6	0.389	4.36	11.7	23.9	0.0835	14.6	1.26	3.27	2.47	16.9	15.3	31.2
Nc1ncnc2c1c(-c1ccc(Oc3ccccc3)cc1)nn2C[C@@H]1SSC[C@H]1O	0.732	7.98	2.02	10.5	2.41	8.31	0.281	1.45	5.58	31.8	2.48	8.21	4.34	23.5	0.898	3.79	17.3	55	1.69	4.7
N#CSCc1ccc(Cl)c(CSC#N)c1	0.0423	> 37.6	0.0865	22.6	0.301	17.4	0.807	12.6	0.186	28.1	9.12	28.4	6.61	34.5	0.0465	25.6	0.0395	15.7	3.11	10.3
